# Laboratory results taken from patent US10988477B2 (Merck Patent GmbH, priority 2018, dated 2021).
# Tests used:
# GCN2 kinase = GCN2 kinase (Homo sapiens, UniProt Q9P2K8); assay: GCN2 enzyme inhibition assay (Transcreener ADP2 fluorescence polarization); assay type: biochemical; conditions: Enzyme activity for compounds of Formula IV; Ki(app), 280 μM ATP, 25° C.
# Summary of the method: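 Inhibition of 4 nM GCN2 was measured with compound up to 8 μM final, ATP 280 μM and (RS)7 peptide 200 μM over a 1 h, 25 °C reaction. ADP FP readout; IC50 and Ki(app) calculated from percent inhibition.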
# [1] = biological target: intracellular GCN2 (phosphorylation of the GCN2 substrate eIF2α) (Homo sapiens, UniProt Q9P2K8); assay: GCN2 cellular inhibition assay (AlphaScreen SureFire P-eIF2α Ser51, borrelidin-treated U2OS cells); assay type: cell-based; conditions: compounds of Formula IV; biomarker assay, phosphorylated eIF2α Ser51 in borrelidin-treated U2OS cells
# Chain of intracellular GCN2 (phosphorylation of the GCN2 substrate eIF2α) (Q9P2K8 whole entry): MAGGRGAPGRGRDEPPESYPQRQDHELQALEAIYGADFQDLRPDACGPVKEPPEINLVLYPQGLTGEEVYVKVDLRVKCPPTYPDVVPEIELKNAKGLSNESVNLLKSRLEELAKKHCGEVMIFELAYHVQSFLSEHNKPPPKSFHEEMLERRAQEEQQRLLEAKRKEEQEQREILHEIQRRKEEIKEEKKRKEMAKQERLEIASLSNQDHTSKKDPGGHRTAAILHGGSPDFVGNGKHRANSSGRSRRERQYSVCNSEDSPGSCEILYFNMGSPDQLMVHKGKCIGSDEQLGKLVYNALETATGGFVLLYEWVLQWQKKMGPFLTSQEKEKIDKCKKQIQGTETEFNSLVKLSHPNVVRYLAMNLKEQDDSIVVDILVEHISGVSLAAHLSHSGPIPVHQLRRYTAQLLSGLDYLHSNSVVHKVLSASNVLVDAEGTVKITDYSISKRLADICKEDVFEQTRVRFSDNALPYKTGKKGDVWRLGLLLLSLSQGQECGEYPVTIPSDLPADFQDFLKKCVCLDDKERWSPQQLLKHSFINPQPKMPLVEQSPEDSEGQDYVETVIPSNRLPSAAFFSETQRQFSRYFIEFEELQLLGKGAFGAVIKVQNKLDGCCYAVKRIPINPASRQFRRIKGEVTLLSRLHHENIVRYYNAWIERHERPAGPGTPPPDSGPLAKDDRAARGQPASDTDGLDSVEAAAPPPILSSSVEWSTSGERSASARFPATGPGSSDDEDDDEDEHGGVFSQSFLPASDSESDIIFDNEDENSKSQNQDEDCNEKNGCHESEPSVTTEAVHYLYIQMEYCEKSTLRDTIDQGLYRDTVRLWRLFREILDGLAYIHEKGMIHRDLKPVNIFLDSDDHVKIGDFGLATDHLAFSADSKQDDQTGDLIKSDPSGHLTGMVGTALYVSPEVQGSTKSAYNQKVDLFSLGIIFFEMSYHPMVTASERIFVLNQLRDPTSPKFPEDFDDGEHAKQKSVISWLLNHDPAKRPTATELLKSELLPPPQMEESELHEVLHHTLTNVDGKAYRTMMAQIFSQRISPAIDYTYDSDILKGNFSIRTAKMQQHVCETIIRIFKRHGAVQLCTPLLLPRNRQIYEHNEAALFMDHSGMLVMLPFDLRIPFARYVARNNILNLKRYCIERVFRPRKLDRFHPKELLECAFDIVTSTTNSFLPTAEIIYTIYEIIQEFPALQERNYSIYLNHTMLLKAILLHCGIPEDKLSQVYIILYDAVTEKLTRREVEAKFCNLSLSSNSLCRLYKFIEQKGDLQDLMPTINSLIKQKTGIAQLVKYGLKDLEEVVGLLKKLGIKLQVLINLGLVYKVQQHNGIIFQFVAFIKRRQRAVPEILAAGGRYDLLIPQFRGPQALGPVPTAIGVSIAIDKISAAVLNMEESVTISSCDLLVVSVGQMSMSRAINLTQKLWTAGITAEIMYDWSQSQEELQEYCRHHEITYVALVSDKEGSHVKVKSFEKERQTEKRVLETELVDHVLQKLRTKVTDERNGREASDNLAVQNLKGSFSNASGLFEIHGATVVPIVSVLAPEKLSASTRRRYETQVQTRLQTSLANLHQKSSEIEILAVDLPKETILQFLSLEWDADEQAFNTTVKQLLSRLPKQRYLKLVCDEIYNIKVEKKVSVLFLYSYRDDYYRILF
# Summary of the method: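 U2OS, overnight attach; cpd 4-fold serial dil. from 40 μM final; borrelidin 10 μM, 1 h 37 °C/5% CO2; lyse; AlphaScreen P-eIF2α Ser51 (acceptor 2 h, donor overnight, RT, dark); % inhib. vs borrelidin-only.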
# Chain of GCN2 kinase (Q9P2K8 whole entry): as above
Compound,Ki (GCN2 kinase),IC50 [1]
"CC1CN(c2ccnc(-c3cnc4cnc(Cl)cn34)n2)CC(c2cn[nH]c2)N1 (single isomer, unassigned) [IV-214, 6-Chloro-3-(4-(3-methyl-5-(1H-pyrazol-4-yl)piperazin-1-yl)pyrimidin-2-yl)imidazo[1,2-a]pyrazine]",< 10 nM,< 500 nM
"CC1CN(c2ccnc(-c3cnc4cnc(Cl)cn34)n2)CC(c2cn[nH]c2)O1 (single isomer, unassigned) [IV-216, 4-(2-(6-Chloroimidazo[1,2-a]pyrazin-3-yl)pyrimidin-4-yl)-2-methyl-6-(1H-pyrazol-4-yl)morpholine]",< 10 nM,500 to 5000 nM
"CC1CN(c2ccnc(-c3cnc4cnc(Cl)cn34)n2)CC(c2cn[nH]c2)O1 (single isomer, unassigned) [IV-217, 4-(2-(6-Chloroimidazo[1,2-a]pyrazin-3-yl)pyrimidin-4-yl)-2-methyl-6-(1H-pyrazol-4-yl)morpholine]",< 10 nM,< 500 nM
"CC1C(c2cn[nH]c2)NCCN1c1ccnc(-c2cnc3cnc(Cl)cn23)n1 (single isomer, unassigned) [IV-230, 6-Chloro-3-(4-(2-methyl-3-(1H-pyrazol-4-yl)piperazin-1-yl)pyrimidin-2-yl)imidazo[1,2-a]pyrazine]",< 10 nM,500 to 5000 nM
"CC1C(c2cn[nH]c2)OCCN1c1ccnc(-c2cnc3cnc(Cl)cn23)n1 (single isomer, unassigned) [IV-245, 4-(2-(6-Chloroimidazo[1,2-a]pyrazin-3-yl)pyrimidin-4-yl)-3-methyl-2-(1H-pyrazol-4-yl)morpholine]",100 to 1000 nM,> 5000 nM
"CC1CN(c2ccnc(-c3cnc4cnc(Cl)cn34)n2)C(C)C(c2cn[nH]c2)N1 (single isomer, unassigned) [IV-247, 6-Chloro-3-(4-(2,5-dimethyl-3-(1H-pyrazol-4-yl)piperazin-1-yl)pyrimidin-2-yl)imidazo[1,2-a]pyrazine]",< 10 nM,< 500 nM
"CC1CN(c2ccnc(-c3cnc4cnc(Br)cn34)n2)C(C)C(c2cn[nH]c2)N1 (single isomer, unassigned) [IV-288, 6-Bromo-3-(4-(2,5-dimethyl-3-(1H-pyrazol-4-yl)piperazin-1-yl)pyrimidin-2-yl)imidazo[1,2-a]pyrazine]",< 10 nM,< 500 nM
"CC1CC(c2cn[nH]c2)C(C)N(c2ccnc(-c3cnc4cnc(C(F)(F)F)cn34)n2)C1 (single isomer, unassigned) [IV-311]",< 10 nM,< 500 nM
"CC1C(c2cn[nH]c2)OCCN1c1ccnc(-c2cnc3cnc(C(F)(F)F)cn23)n1 (single isomer, unassigned) [IV-318, 3-Methyl-2-(1H-pyrazol-4-yl)-4-(2-(6-(trifluoromethyl)imidazo[1,2-a]pyrazin-3-yl)pyrimidin-4-yl)morpholine]",< 10 nM,< 500 nM
"CC1CN(c2ccnc(-c3cnc4cnc(C(F)(F)F)cn34)n2)C(C)C(c2cn[nH]c2)N1 (single isomer, unassigned) [IV-345, 3-(4-(2,5-Dimethyl-3-(1H-pyrazol-4-yl)piperazin-1-yl)pyrimidin-2-yl)-6-(trifluoromethyl)imidazo[1,2-a]pyrazine]",10 to 100 nM,500 to 5000 nM
"CC1C(c2cn[nH]c2)NCCN1c1ccnc(-c2cnc3cnc(Br)cn23)n1 (single isomer, unassigned) [IV-350, 6-Bromo-3-(4-(2-methyl-3-(1H-pyrazol-4-yl)piperazin-1-yl)pyrimidin-2-yl)imidazo[1,2-a]pyrazine]",100 to 1000 nM,500 to 5000 nM
"CC1C(c2cn[nH]c2)NCCN1c1ccnc(-c2cnc3cnc(Br)cn23)n1 (single isomer, unassigned) [IV-351, 6-Bromo-3-(4-(2-methyl-3-(1H-pyrazol-4-yl)piperazin-1-yl)pyrimidin-2-yl)imidazo[1,2-a]pyrazine]",< 10 nM,< 500 nM
"CC1C(c2cn[nH]c2)NCCN1c1ccnc(-c2cnc3cnc(C(F)(F)F)cn23)n1 (single isomer, unassigned) [IV-357, 3-(4-(2-Methyl-3-(1H-pyrazol-4-yl)piperazin-1-yl)pyrimidin-2-yl)-6-(trifluoromethyl)imidazo[1,2-a]pyrazine]",100 to 1000 nM,> 5000 nM

# Results, then the molecule that gave them:
Ki (GCN2 kinase),IC50 [1],Compound
< 10 nM,500 to 5000 nM,"CC1C(c2cn[nH]c2)NCCN1c1ccnc(-c2cnc3cnc(C(F)(F)F)cn23)n1 (single isomer, unassigned) [IV-358, 3-(4-(2-Methyl-3-(1H-pyrazol-4-yl)piperazin-1-yl)pyrimidin-2-yl)-6-(trifluoromethyl)imidazo[1,2-a]pyrazine]"
< 10 nM,< 500 nM,"Brc1cn2c(-c3nccc(N4CCCC(c5cn[nH]c5)C4)n3)cnc2cn1 (single isomer, unassigned) [IV-360, 3-(4-(3-(1H-Pyrazol-4-yl)piperidin-1-yl)pyrimidin-2-yl)-6-bromoimidazo[1,2-a]pyrazine]"
< 10 nM,< 500 nM,"Brc1cn2c(-c3nccc(N4CCCC(c5cn[nH]c5)C4)n3)cnc2cn1 (single isomer, unassigned) [IV-361, 3-(4-(3-(1H-Pyrazol-4-yl)piperidin-1-yl)pyrimidin-2-yl)-6-bromoimidazo[1,2-a]pyrazine]"
10 to 100 nM,500 to 5000 nM,"Brc1cn2c(-c3nccc(N4CCCC(c5c[nH]cn5)C4)n3)cnc2cn1 (single isomer, unassigned) [IV-362, 3-(4-(3-(1H-Imidazol-4-yl)piperidin-1-yl)pyrimidin-2-yl)-6-bromoimidazo[1,2-a]pyrazine]"
10 to 100 nM,500 to 5000 nM,"CC1CN(c2ccnc(-c3cnc4cnc(Br)cn34)n2)CC(c2cn[nH]c2)N1 (single isomer, unassigned) [IV-364, 6-Bromo-3-(4-(3-methyl-5-(1H-pyrazol-4-yl)piperazin-1-yl)pyrimidin-2-yl)imidazo[1,2-a]pyrazine]"
< 10 nM,500 to 5000 nM,"CC1CN(c2ccnc(-c3cnc4cnc(Br)cn34)n2)CC(c2cn[nH]c2)N1 (single isomer, unassigned) [IV-365, 6-Bromo-3-(4-(3-methyl-5-(1H-pyrazol-4-yl)piperazin-1-yl)pyrimidin-2-yl)imidazo[1,2-a]pyrazine]"
100 to 1000 nM,> 5000 nM,"CC1CC(CS(C)(=N)=O)C(C)N(c2ccnc(-c3cnc4cnc(C(F)F)cn34)n2)C1 (single isomer, unassigned) [IV-366, ((1-(2-(6-(Difluoromethyl)imidazo[1,2-a]pyrazin-3-yl)pyrimidin-4-yl)-2,5-dimethylpiperidin-3-yl)methyl)(imino)(methyl)-λ^6-sulfanone]"
100 to 1000 nM,> 5000 nM,"CC1CC(CS(C)(=N)=O)C(C)N(c2ccnc(-c3cnc4cnc(C(F)F)cn34)n2)C1 (single isomer, unassigned) [IV-368, ((1-(2-(6-(Difluoromethyl)imidazo[1,2-a]pyrazin-3-yl)pyrimidin-4-yl)-2,5-dimethylpiperidin-3-yl)methyl)(imino)(methyl)-λ^6-sulfanone]"
< 10 nM,500 to 5000 nM,"CC1CN(c2nccc(-c3cnc4cnc(C(F)(F)F)cn34)n2)C(C)C(c2cn[nH]c2)N1 (single isomer, unassigned) [IV-369, 3-(2-(2,5-Dimethyl-3-(1H-pyrazol-4-yl)piperazin-1-yl)pyrimidin-4-yl)-6-(trifluoromethyl)imidazo[1,2-a]pyrazine]"
10 to 100 nM,500 to 5000 nM,"Cc1nc(C2CCCN(c3ccnc(-c4cnc5cnc(Br)cn45)n3)C2)c[nH]1 (single isomer, unassigned) [IV-374, 6-Bromo-3-(4-(3-(2-methyl-1H-imidazol-4-yl)piperidin-1-yl)pyrimidin-2-yl)imidazo[1,2-a]pyrazine]"
< 10 nM,< 500 nM,"Cc1nc(C2CCCN(c3ccnc(-c4cnc5cnc(Br)cn45)n3)C2)c[nH]1 (single isomer, unassigned) [IV-375, 6-Bromo-3-(4-(3-(2-methyl-1H-imidazol-4-yl)piperidin-1-yl)pyrimidin-2-yl)imidazo[1,2-a]pyrazine]"
< 10 nM,500 to 5000 nM,"CC1CN(c2ccnc(-c3cnc4cnc(Br)cn34)n2)C(C)C(c2c[nH]cn2)N1 (single isomer, unassigned) [IV-376, 3-(4-(3-(1H-Imidazol-4-yl)-2,5-dimethylpiperazin-1-yl)pyrimidin-2-yl)-6-bromoimidazo[1,2-a]pyrazine]"
100 to 1000 nM,500 to 5000 nM,"CC1CN(c2ccnc(-c3cnc4cnc(Br)cn34)n2)C(C)C(c2c[nH]cn2)N1 (single isomer, unassigned) [IV-377, 3-(4-(3-(1H-Imidazol-4-yl)-2,5-dimethylpiperazin-1-yl)pyrimidin-2-yl)-6-bromoimidazo[1,2-a]pyrazine]"
< 10 nM,500 to 5000 nM,"CS(C)(=O)=NC1CC(c2cn[nH]c2)CN(c2ccnc(-c3cnc4cnc(C(F)(F)F)cn34)n2)C1 (single isomer, unassigned) [IV-399, ((5-(1H-Pyrazol-4-yl)-1-(2-(6-(trifluoromethyl)imidazo[1,2-a]pyrazin-3-yl)pyrimidin-4-yl)piperidin-3-yl)imino)dimethyl-λ^6-sulfanone]"
10 to 100 nM,> 5000 nM,"CS(C)(=O)=NC1CC(c2cn[nH]c2)CN(c2ccnc(-c3cnc4cnc(C(F)(F)F)cn34)n2)C1 (single isomer, unassigned) [IV-400, ((5-(1H-Pyrazol-4-yl)-1-(2-(6-(trifluoromethyl)imidazo[1,2-a]pyrazin-3-yl)pyrimidin-4-yl)piperidin-3-yl)imino)dimethyl-λ^6-sulfanone]"
